Data as given in patent US12416639B2, “Reagents and methods for detecting protein lysine lactylation” (Jingjie PTM Biolab (Hangzhou) Co., Inc, priority 2018, dated 2025).

Columns and labels:
MCF-7 cells [1] = assay: Histone Kla levels in MCF-7 cells by immunoblot (pan anti-Kla); format: cell-based, human
Procedure: (§1) Intracellular lactate (a and d) and histone Kla levels (b and c) were measured from MCF-7 cells cultured in different glucose concentrations or different 2-DG concentrations in the presence of 25 mM glucose for 24 hours. Lactate was measured by a lactate colorimetric kit; n=3 biological replicates; statistical significance was determined using one-way ANOVA followed by Sidak's multiple comparisons test. Immunoblots was carried out using acid-extracted histone samples. The pan anti-Kla and anti-Kac immunoblots indicate molecular weights between 10 kD and 15 kD. e, Regulation of glycolysis and lactate production by diverse metabolic modulators. f, Intracellular lactate levels were measured in MCF-7 cells treated with indicated glycolysis modulators for 24 hours. N=3 biological replicates; statistical significance was determined using one-way ANOVA followed by Dunnett's multiple comparisons test. g-i, Immunoblots of acid extracted histones (Rotenone and DCA) or whole cell lysates (Oxamate) from MCF-7 cells in response to different glycolysis modulators. j, Intracellular lactate levels were measured in MCF-7 cells in response to hypoxia. N=4 biological replicates; statistical significance was determined using unpaired t test (Two-tailed). k, Immunoblots of acid extracted histones from MCF-7 cells under hypoxia (1% oxygen) for indicated time points. a, d, f, j, Graphs show mean with s.e.m. b, c, g, h, i, k, Data represent three independent experiments. […]

MCF-7 cells [2] = assay: Intracellular lactate in MCF-7 cells (lactate colorimetric kit); format: cell-based, human; conditions: 24 hours
Procedure: as §1

MCF-7 cells [3] = assay: U-13C6 glucose labeling followed by MS/MS of histone Kla and Kac in MCF-7 cells; format: cell-based, human
Procedure: The peptide samples were loaded onto a home-made capillary column (10 cm length×[…], 3 μm particle size, Dr. Maisch GmbH, Ammerbuch, Germany) connected to an EASY-nLC 1000 system (Thermo Fisher Scientific, Waltham, MA). Peptides were separated and eluted with a gradient of 2% to 90% HPLC buffer B (0.1% formic acid in acetonitrile, v/v) in buffer A (0.1% formic acid in water, v/v) at a flow rate of 200 nL/min over 60 min (34 min for coelution studies). The eluted peptides were then ionized and analyzed by a Q-Exactive mass spectrometer (Thermo Fisher Scientific, Waltham, MA). Full MS was acquired in the Orbitrap mass analyzer over the range m/z 300-1400 with a resolution of 70,000 at m/z 200. The 12 most intense ions with charge ≥2 were fragmented with normalized collision energy of 27 and tandem mass spectra were acquired with a mass resolution of 17500 at m/z 200.
MCF-7 cells were cultured in DMEM high glucose media plus 10% FBS. To be labeled by isotopic lactate, cells were treated with 10 mM of ^13C3 sodium L-lactate for 24 hours. To be labeled by isotopic glucose, cells were switched to DMEM No-Glucose media (Gibco) for 24 hours, followed by supplementation with 25 mM of U-^13C6 D-glucose and continued culturing for three passages. Histones were extracted, digested with trypsin, immunoprecipitated using a pan anti-Kla antibody, and analyzed by HPLC/MS/MS as described above.

MCF-7 cells [4] = assay: Hypoxia-induced lactate production and histone Kla; format: cell-based, human; conditions: hypoxia (1% oxygen); cell line not given
Procedure: as §1, with “hypoxia.” for “hypoxia. N=4 biological replicates; statistical significance was determined using unpaired t test (Two-tailed). k, Immunoblots of acid extracted histones from MCF-7 cells under hypoxia (1% oxygen) for indicated time points. a, d, f, j, Graphs show mean with s.e.m. b, c, g, h, i, k, Data represent three independent experiments.”

[5] = biological target: T1, recombinant chromatin (p53- and p300-dependent) (Homo sapiens, UniProt Q09472); assay: Cell-free recombinant chromatin-templated histone modification and transcription assay; format: biochemical; conditions: acetyl-CoA replaced by L-lactyl-CoA
T1 construct: made in house
T1 sequence (Q09472 whole entry): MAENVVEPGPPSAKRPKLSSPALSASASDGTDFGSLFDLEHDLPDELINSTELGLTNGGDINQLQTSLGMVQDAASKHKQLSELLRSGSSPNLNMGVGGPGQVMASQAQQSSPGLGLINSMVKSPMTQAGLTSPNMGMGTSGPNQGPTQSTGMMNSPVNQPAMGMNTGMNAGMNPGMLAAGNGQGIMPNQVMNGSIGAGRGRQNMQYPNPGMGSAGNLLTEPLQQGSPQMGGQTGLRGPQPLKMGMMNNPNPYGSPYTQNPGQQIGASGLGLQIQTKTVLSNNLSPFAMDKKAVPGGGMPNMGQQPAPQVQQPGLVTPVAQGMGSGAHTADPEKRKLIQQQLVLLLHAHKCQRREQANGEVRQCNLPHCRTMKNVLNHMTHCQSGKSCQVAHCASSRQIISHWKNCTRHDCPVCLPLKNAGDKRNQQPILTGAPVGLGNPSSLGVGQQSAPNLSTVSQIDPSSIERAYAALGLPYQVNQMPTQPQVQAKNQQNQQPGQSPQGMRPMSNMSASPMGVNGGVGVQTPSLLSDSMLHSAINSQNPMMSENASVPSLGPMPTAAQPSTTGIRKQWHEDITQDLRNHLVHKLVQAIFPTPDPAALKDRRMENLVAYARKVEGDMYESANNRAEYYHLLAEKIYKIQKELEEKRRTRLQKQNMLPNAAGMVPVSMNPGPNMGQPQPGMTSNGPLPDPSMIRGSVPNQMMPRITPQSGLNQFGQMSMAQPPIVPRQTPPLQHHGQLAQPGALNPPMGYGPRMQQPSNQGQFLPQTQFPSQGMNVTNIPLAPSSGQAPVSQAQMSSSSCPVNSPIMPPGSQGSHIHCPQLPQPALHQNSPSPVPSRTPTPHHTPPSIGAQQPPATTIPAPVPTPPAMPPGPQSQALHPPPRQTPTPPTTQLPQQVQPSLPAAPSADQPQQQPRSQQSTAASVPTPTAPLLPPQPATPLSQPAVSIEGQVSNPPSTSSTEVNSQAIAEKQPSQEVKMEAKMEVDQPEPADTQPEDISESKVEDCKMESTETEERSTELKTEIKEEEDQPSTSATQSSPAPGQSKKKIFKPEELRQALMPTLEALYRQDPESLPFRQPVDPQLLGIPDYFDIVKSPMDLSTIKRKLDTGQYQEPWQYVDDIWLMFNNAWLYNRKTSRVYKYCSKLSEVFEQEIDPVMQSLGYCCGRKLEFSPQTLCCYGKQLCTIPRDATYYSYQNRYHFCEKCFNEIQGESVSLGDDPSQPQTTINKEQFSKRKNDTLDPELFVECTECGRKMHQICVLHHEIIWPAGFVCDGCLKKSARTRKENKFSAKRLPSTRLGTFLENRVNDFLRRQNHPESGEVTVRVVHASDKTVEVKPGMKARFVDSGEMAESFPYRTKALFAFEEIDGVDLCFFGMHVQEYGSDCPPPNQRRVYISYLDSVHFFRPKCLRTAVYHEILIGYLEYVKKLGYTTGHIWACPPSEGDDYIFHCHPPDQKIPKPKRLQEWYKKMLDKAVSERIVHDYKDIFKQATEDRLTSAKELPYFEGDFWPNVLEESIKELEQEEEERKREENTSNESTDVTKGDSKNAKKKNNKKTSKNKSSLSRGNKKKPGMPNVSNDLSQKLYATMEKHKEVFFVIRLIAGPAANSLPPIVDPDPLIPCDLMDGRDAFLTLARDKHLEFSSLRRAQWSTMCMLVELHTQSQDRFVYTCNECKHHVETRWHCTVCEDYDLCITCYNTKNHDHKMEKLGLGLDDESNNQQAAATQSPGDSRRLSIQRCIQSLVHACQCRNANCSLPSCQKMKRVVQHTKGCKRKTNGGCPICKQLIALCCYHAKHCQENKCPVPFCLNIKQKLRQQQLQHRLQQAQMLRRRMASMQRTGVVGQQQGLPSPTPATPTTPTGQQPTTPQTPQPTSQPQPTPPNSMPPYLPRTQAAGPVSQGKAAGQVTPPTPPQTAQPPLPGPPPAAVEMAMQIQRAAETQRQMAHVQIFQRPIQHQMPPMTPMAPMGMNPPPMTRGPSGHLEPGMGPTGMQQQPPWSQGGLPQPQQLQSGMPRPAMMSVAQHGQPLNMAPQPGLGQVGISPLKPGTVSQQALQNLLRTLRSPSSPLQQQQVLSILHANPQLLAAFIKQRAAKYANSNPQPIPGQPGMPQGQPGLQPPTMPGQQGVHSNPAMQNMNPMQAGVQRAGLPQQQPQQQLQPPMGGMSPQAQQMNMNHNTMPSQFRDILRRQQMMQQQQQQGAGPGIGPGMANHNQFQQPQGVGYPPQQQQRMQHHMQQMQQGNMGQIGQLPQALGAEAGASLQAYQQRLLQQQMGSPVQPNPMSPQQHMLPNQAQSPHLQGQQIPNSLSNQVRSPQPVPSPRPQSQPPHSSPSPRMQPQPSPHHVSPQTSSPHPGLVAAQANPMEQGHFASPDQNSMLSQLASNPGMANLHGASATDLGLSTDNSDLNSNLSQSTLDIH
Procedure: To examine the potential activity of p300 as a histone Kla writer in cells, we over-expressed p300 in HEK293T cells and observed a modest increase in histone Kla levels. In contrast, p300 deletion in HCT116 and HEK293T cells decreased histone Kla levels.
Purification of recombinant proteins and chromatin assembly were performed as previously described (Tang et al., Cell 154, 297-310, doi:10.1016/j.cell.2013.06.027 (2013)). The chromatin-templated histone modification and transcription assays were as described previously (Tang et al., Cell 154, 297-310, doi:10.1016/j.cell.2013.06.027 (2013)), except that lactyl-CoA was used in place of acetyl-CoA and [α-32P] CTP was used in place of [α-32P]-UTP. The H3KR, H4KR, H2AKR, and H2BKR histone mutants were the same as previously described (Tang et al., Cell 154, 297-310, doi:10.1016/j.cell.2013.06.027 (2013)). Histone modifications were monitored by immunoblot and transcription products were monitored by autoradiography as described (Tang et al., Cell 154, 297-310, doi:10.1016/j.cell.2013.06.027 (2013)).

BMDM cells = assay: M1 polarization (LPS+IFNγ) of BMDM cells: lactate, histone Kla, gene expression, ChIP-qPCR; format: cell-based, mouse
Procedure: Intracellular lactate levels were measured using a lactate colorimetric kit (a) and global histone Kla levels were measured by immunoblots (b) 24 h-post M1 polarization. c, Gene expression were analyzed by RT-qPCR at indicated time points after M1 polarization. a-c, N=3 biological replicates. d, H3K18la occupancy was analyzed by ChIP-qPCR 24 h-post M1 polarization. Data represent three technical replicates from pooled samples. e-h, Exogeneous lactic acid (25 mM) was added to BMDM cells 4 h post-M1 polarization (LPS+IFNγ), and cells were collected at indicated time points post-M1 polarization for intracellular lactate measurement (e), histone Kla immunoblot analysis (f), gene expression analysis (g) and H3K18la occupancy analysis by ChIP-qPCR (h). e, N=3 biological replicates, f, Data represent three independent experiments. g, RPKM: Reads Per Kilobase of transcript per Million mapped reads (RPKM). N=4 biological replicates. h, Data represent three technical replicates from pooled samples. a, c, d, e, g, h, Graphs show mean with s.e.m; statistical significance was determined using Multiple t tests corrected using Holm-Sidak method (a, c, e, g).
All animal use and experiments performed were approved by Institutional Animal Care and Use Committee (ACUP #72209) at the University of Chicago. Ldha^fl/fl mice (Jackson laboratory, 030112) and LysMcre mice (Jackson laboratory, 004781) were used to generate LysMcre^+/−Ldha^fl/fl and littermate control LysMcre^−/− Ldha^fl/fl mice. The following primers were used for genotyping: Ldha forward: […] (SEQ ID NO: 88) and Ldha reverse: […] (SEQ ID NO: 89). LysMcre: […] (SEQ ID NO: 90), LysM Common: […] (SEQ ID NO: 91) and LysM WT: […] (SEQ ID NO: 92). Macrophages were derived from bone marrow of 8-week male C57BL/6 mice following the published procedure. To induce an M1 or M2 phenotype, BMDM cells were stimulated with 5 ng/ml of LPS and 12 ng/ml of IFNγ or 20 ng/ml of interleukin 4, for 24 hours or the indicated time. To infect BMDM cells with bacteria, overnight cultures of E. coli, A. baumannii, or P. aeruginosa were diluted in RPMI-1640 and added to BMDM cells in 6-well plates at 2 and 20 multiplicity of infection. A control plate was either infected with paraformaldehyde-killed bacteria or treated with 5 ng/mL lipopolysaccharide (LPS) in the absence of bacteria. The plates were centrifuged at 2170 rpm for 30 min to promote infection, followed by a 30 min incubation in a humidified incubator at 37° C. under 5% CO2. To kill extracellular bacteria, the medium overlying the confluent cell monolayer was replaced with fresh media containing gentamicin at 100 μg/mL and the plates were further incubated for 1 h. Following incubation, media were removed from infected cells and replaced with fresh media containing 25 μg/mL of gentamicin. For consistency, LPS-treated cells and cells infected with dead bacteria were also treated with gentamicin. Cells were cultured for 24 h before lysis. Allocation of BMDM cells into different treated groups were randomized and not blinded.
Total RNA was extracted from BMDM cells activated as indicated using a RNeasy Plus Mini Kit (74134, Qiagen, Hilden, Germany). Two to four micrograms of total RNA were used as starting material to prepare libraries using Illumina TruSeq Stranded mRNA Library Prep Kit Set A (RS-122-2101, Illumina, San Diego, CA). The libraries' size was selected by using the Agencourt AMPure XP beads (A63882, Beckman Coulter, Brea, CA), with average size of 400 bp. The libraries were sequenced using Illumina HiSeq 4000 (pair end 50 bp).
Native ChIP was carried out following the published protocol (Cuddapah et al., Cold Spring Harb Protoc 2009, pdb prot5237, doi:10.1101/pdb.prot5237 (2009)) with spiked-in for normalization purpose. Spike-in was carried out according to vendor protocols (#61686, Active motif, Carlsbad, CA). […]

BMDMs = assay: U-13C6 glucose labeling of histone Kla and Kac in BMDMs during M1 polarization; format: cell-based, mouse
Text: All animal use and experiments performed were approved by Institutional Animal Care and Use Committee (ACUP #72209) at the University of Chicago. Ldha^fl/fl mice (Jackson laboratory, 030112) and LysMcre mice (Jackson laboratory, 004781) were used to generate LysMcre^+/−Ldha^fl/fl and littermate control LysMcre^−/− Ldha^fl/fl mice. The following primers were used for genotyping: Ldha forward: […] (SEQ ID NO: 88) and Ldha reverse: […] (SEQ ID NO: 89). LysMcre: […] (SEQ ID NO: 90), LysM Common: […] (SEQ ID NO: 91) and LysM WT: […] (SEQ ID NO: 92). Macrophages were derived from bone marrow of 8-week male C57BL/6 mice following the published procedure. To induce an M1 or M2 phenotype, BMDM cells were stimulated with 5 ng/ml of LPS and 12 ng/ml of IFNγ or 20 ng/ml of interleukin 4, for 24 hours or the indicated time. To infect BMDM cells with bacteria, overnight cultures of E. coli, A. baumannii, or P. aeruginosa were diluted in RPMI-1640 and added to BMDM cells in 6-well plates at 2 and 20 multiplicity of infection. […]
The peptide samples were loaded onto a home-made capillary column (10 cm length×[…], 3 μm particle size, Dr. Maisch GmbH, Ammerbuch, Germany) connected to an EASY-nLC 1000 system (Thermo Fisher Scientific, Waltham, MA). […] The eluted peptides were then ionized and analyzed by a Q-Exactive mass spectrometer (Thermo Fisher Scientific, Waltham, MA). […]

[6] = M1 polarization, exogenous lactate
[7] = exogenous lactic acid 25 mM added 4 h post-M1 polarization

## O=CC[C@@H](O)[C@H](O)[C@H](O)CO [2-DG, 2-deoxy-D-glucose]
MCF-7 cells [1]
  histone Kla levels: decreased
MCF-7 cells [2]
  intracellular lactate levels / lactate production: decreased

## O=C([O-])C(Cl)Cl.[Na+] [DCA, Sodium dichloroacetate]
MCF-7 cells [1]
  histone Kla levels: lowered
MCF-7 cells [3]
  incorporation of 13C into histone Kac: but not Kac was decreased
  incorporation of 13C into histone Kla: decreased
MCF-7 cells [2]
  intracellular lactate levels / lactate production: decreased
MCF-7 cells [4]
  induction of histone Kla by hypoxia: attenuated
  induction of lactate production by hypoxia: attenuated

## C[C@H](O)C(=O)SCCNC(=O)CCNC(=O)[C@H](O)C(C)(C)COP(=O)(O)OP(=O)(O)OC[C@H]1O[C@@H](n2cnc3c(N)ncnc32)[C@H](O)[C@@H]1OP(=O)(O)O [L-lactyl-CoA]
[5]; autoradiography
  transcription: a corresponding effect on transcription
[5]; immunoblot
  H3 and H4 lactylation: robust p53-dependent, p300-mediated H3 and H4 lactylation

## C[C@H](O)C(=O)O [lactate, L-(+)-lactic acid]
MCF-7 cells [1]
  histone Kla levels: elevated in a dose-dependent fashion
BMDM cells; [6]
  early pro-inflammatory gene expression: did not affect
  expression of other M2-like genes, such as Vegfa: enhanced
BMDM cells; [7]
  Arg1 expression: induced
  intracellular lactate: increased
BMDM cells; exogenous lactic acid 25 mM added 4 h post-M1 polarization, immunoblot
  histone Kla levels: increased
BMDM cells; exogenous lactic acid 25 mM, H3K18la ChIP-qPCR
  Kla levels at the Arg1 promoter: induced

## C=C(C)[C@H]1Cc2c(ccc3c2O[C@@H]2COc4cc(OC)c(OC)cc4[C@@H]2C3=O)O1 [rotenone]
MCF-7 cells [1]
  histone Kla levels: increased
MCF-7 cells [2]
  intracellular lactate levels / lactate production: increased

## GNE-140
BMDMs
  13C incorporation into histone Kla: reduced
